Seven molecules from patent US20080089859A1, “ADMINISTRATION OF SLEEP RESTORATIVE AGENTS” (priority 2001, published 2008) can be followed below.

Molecules are shown by their SMILES.

Data set [1] concerns patients with Behcet's Syndrome. Briefly: Treatment of patients with Behcet's Syndrome. It is filed as in vivo, human. As to conditions: for Symptoms observed in the patient: second patient (pramipexole added to lorazepam), third patient (clonazepam 2 mg qhs); for Discontinuation of prednisone: single patients, lorazepam 2 mg qhs (patient 1), pramipexole added to lorazepam (patient 2), clonazepam 2 mg qhs (patient 3). Here is the method:
Three patients with Behcet's Syndrome were treated according to the present invention. For one patient, prednisone administration was supplemented with lorazepam at 2 mg qhs. […] For a second patient, lorazepam at 2 mg qhs was co-admnistered with Dapsone and prednisone.

Data set [2] relates to rheumatoid arthritis (Ra) and Psoriatic arthritis (PsA) patients. As to the kind of experiment: Study of Example 1 continued to 18 months (Example 2). The data set is classed as in vivo, human. Conditions: for Response of improved patients after adding the agent to their treatment: 12 month to 18 month time point, on Etanercept. The source says:
The study of Example 1 was continued to 18 months. […] Fibromyalgia was a surrogate for a lack of deep (e.g., stage IV) restorative sleep.
JC refers to the number of swollen tender joints.

Data set [3] deals with patients having rheumatoid arthritis. Briefly: Rheumatoid arthritis patients on Leflunamide given sleep restorative agents. The data set is classed as in vivo, human. As to conditions: lorazepam, clonazepam and/or pramipexole.
Data set [4] has as its system patients with Palindromic Rheumatism. Briefly: Treatment of patients with Palindromic Rheumatism. The data set is classed as in vivo, human. Conditions: five patients; clonazepam 2 mg, pramipexole 1-6 mg and/or lorazepam 2 mg qhs. Here is the method: Five patient with Palindromic Rheumatism were treated according to the present invention. After adding clonazepam 2 mg, pramipexole 1-6 mg and/or lorazepam 2 mg qhs to their treatment, the patients reported that episodic severe pain decreased dramatically, by 90%.

Data set [5] relates to patients with Sjogren's Syndrome. As to the kind of experiment: Treatment of patients with dry eyes and mouth from Sjogren's Syndrome. Conditions: Lorazepam 1-2 mg po qhs, Pramipexole later 0.5-4.0 mg qhs; for Resolution of dryness (eyes and mouth): 3 patients on Hydroxychloroquine 200 mg po bid, nearly complete resolution in third patient; for Hydroxychloroquine sparing: 3 patients. The data set is classed as in vivo, human. On the procedure: Three patients with dry eyes and mouth from Sjogren's Syndrome, were treated with lorazepam or pramipexole. […] Lorazepam was administered at 1-2 mg po qhs. Pramipexole was later administered at 0.5-4.0 mg qhs.

The subject of data set [6] is patients with Multiple Sclerosis (MS). As to conditions: for MS activity: three patients, pramipexole and/or lorazepam added; for Tolerability: human, in vivo. On the procedure: Eight patients with Multiple Sclerosis (MS) were treated according to the present invention.
Data set [7] relates to patient with pseudogout. Briefly: Treatment of a patient with pseudogout. As to conditions: one patient on colchicine; lorazepam 2 mg qhs added for sleep. It is filed as in vivo, human.
Data set [8] relates to patients having rheumatoid arthritis. Briefly: Rheumatoid arthritis patients on Infliximab given sleep restorative agents. The data set is classed as in vivo, human. As to conditions: lorazepam 1-2 mg qhs or pramipexole.
Data set [9] has as its system patients with Ankylosing Spondylitis. As to the kind of experiment: Treatment of patients with Ankylosing Spondylitis. It is filed as in vivo, human. As to conditions: six patients on Methotrexate, steroids 2-10 mg qd and Etanercept; lorazepam 1-2 mg qhs or pramipexole 0.5-3.0 mg qhs. On the procedure:
Six patients with Ankylosing Spondylitis were treated according to the present invention. […] The patients were administered lorazepam 1-2 mg qhs or pramipexole 0.5-3.0 mg qhs.

The subject of data set [10] is patient with chronic gout. As to the kind of experiment: Treatment of a patient with chronic gout and severe synovitis. The data set is classed as in vivo, human. As to conditions: for Discontinuation of other medications / Prednisone dose reached: one patient; for Discontinuation of other medications: pramipexole and lorazepam added together; for Prednisone dose reached: colchicine, hydroxychloroquine and Etanercept added together, before sleep agents. Here is the method: Adding colchicine, hydroxychloroquine and Etanercept only allowed them to decrease prednisone to 15 mg qd.

Data set [11] concerns patients with Systemic Lupus Erythematosis. As to the kind of experiment: Treatment of patients with Systemic Lupus Erythematosis. The data set is classed as in vivo, human. On the procedure:
Patients with Systemic Lupus Erythematosis were treated according to the present invention.
The dose range of pramipexole ranged from 2-6 mg qhs.

Data set [12] concerns patient with ocular and articular Sarcoidosis. As to conditions: one patient steroid-dependent for two years; Pramipexole to 3 mg qhs. The source says:
A patient with ocular and articular Sarcoidosis was steroid-dependent for two years.

The test system of data set [13] is patient with Reiter's Syndrome. As to conditions: one patient on Etanercept; pramipexole up to 4 mg qhs.
Data set [14] concerns patients having rheumatoid arthritis. As to the kind of experiment: Rheumatoid arthritis patients on prednisone given Ropinirole. The data set is classed as in vivo, human. Conditions: Ropinirole 2-20 mg qhs.

As to `O=C1CN=C(c2ccccc2Cl)c2cc([N+](=O)[O-])ccc2N1` [Clonazepam], in data set [1], the “Symptoms observed in the patient” value is “less fatigue and no further mouth ulcers were observed”; the Discontinuation of prednisone entry is listed as “able to discontinue prednisone 10 mg qd”. Besides, the “Response of improved patients after adding the agent to their treatment” value (shortened to “Response of improved patients”) in data set [2] is given as “did much better from the 12 month time point to the 18 month time point”. In addition, the Leflunamide efficacy entry in data set [3] is given as “increased Leflunamide efficacy”. In data set [4], the “Decrease of episodic severe pain” value is reported as 90%; the Other medications stopped entry was “off narcotics, steroids, Etanercept, Infliximab, leflunamide, Azothioprine, sulfasalazine, hydroxychloroquine and colchicine”.
Turning to `O=C1Nc2ccc(Cl)cc2C(c2ccccc2Cl)=NC1O` (stereo not shown) [Lorazepam], the “Discontinuation of Dapsone” value in data set [1] (second patient, lorazepam 2 mg qhs with Dapsone and prednisone) is “Dapsone could be discontinued without further seizures”. Besides, the Discontinuation of prednisone entry in data set [1] is on record as “able to d/c prednisone in two months”. For the same molecule, in data set [2], the “Response of improved patients” value is reported as “did much better from the 12 month time point to the 18 month time point”. Also, in [5], the “Resolution of dryness (eyes and mouth)” value is reported as “Complete resolution of the dryness in 2 of 3 patients”; the Hydroxychloroquine sparing entry was “One daily dose of Hydroxychloroquine was discontinued and benefit maintained”. The Sleep and fibromyalgia entry in data set [6] (one patient flaring uncontrollably, Lorazepam 2 mg qhs) is “still exhibited poor sleep and fibromyalgia”. For the same molecule, in data set [6], the MS activity entry is reported as “MS was quiet for over three years”. In addition, the Flares entry in data set [7] was “no flares for three years”. Further, the Infliximab efficacy entry in data set [8] is given as “increased efficacy of Infliximab”. In data set [9], the “Discontinuation of Methotrexate and steroids” value is “All six patients were able to discontinue Methotrexate and steroids”. Further, the Leflunamide efficacy entry in [3] is on record as “increased Leflunamide efficacy”. The “Discontinuation of other medications” value in data set [10] was “allowed the patient to discontinue steroids, colchicine, hydroxychoroquine, and narcotics”. Besides, in data set [4], the “Decrease of episodic severe pain” value was 90%; the Other medications stopped result is “off narcotics, steroids, Etanercept, Infliximab, leflunamide, Azothioprine, sulfasalazine, hydroxychloroquine and colchicine”. This molecule also had a Prednisone dose reached in [11] (patient steroid-dependent at 20 mg qd on leflunamide, lorazepam 2 mg qhs added) of 15 mg qhs.
Regarding `CCCNC1CCc2nc(N)sc2C1` (stereo not shown) [Pramipexole, 2-amino-4,5,6,7-tetrahydro-6-(propylamino)benzo-thiazole], in data set [1], the “Symptoms observed in the patient” value is reported as “No fatigue, mouth ulcers, skin vasculitis, hoarse voice or seizures were observed” and the Discontinuation of prednisone result was “prednisone 5 mg qd could be discontinued”. Besides, the “Response of improved patients” value in data set [2] was “did much better from the 12 month time point to the 18 month time point”. For the same molecule, the “Expected prednisone discontinuation after conversion back to inactive FM” value in data set [2] (one patient who developed FM and needs prednisone 10 mg qd, planned treatment) is on record as “expected to allow them to discontinue prednisone”. In data set [5], the “Resolution of dryness (eyes and mouth)” value was “Complete resolution of the dryness in 2 of 3 patients”; the Hydroxychloroquine sparing result is “One daily dose of Hydroxychloroquine was discontinued and benefit maintained”. Further, in [6], the Tolerability result is on record as “intolerant” and the MS activity entry is reported as “MS was quiet for over three years”. For the same molecule, in [12], the “Decrease of steroids with disease still controlled” value was determined as 90%. The Infliximab efficacy result in [8] is given as “increased efficacy of Infliximab”. Moreover, in data set [9], the “Discontinuation of Methotrexate and steroids” value is “All six patients were able to discontinue Methotrexate and steroids”. In addition, in [13], the “Discontinuation of other medications” value is “able to discontinue methotrexate, steroids 5-10 mg qd, and narcotics”; the “Response of dactylitis and synovitis” value was “dactylitis and synovitis responded better to Etanercept”. For the same molecule, in [3], the Leflunamide efficacy result is “increased Leflunamide efficacy”. Also, the “Discontinuation of other medications” value in [10] is “allowed the patient to discontinue steroids, colchicine, hydroxychoroquine, and narcotics”. Also, in [4], the “Decrease of episodic severe pain” value is given as 90%; the Other medications stopped result is “off narcotics, steroids, Etanercept, Infliximab, leflunamide, Azothioprine, sulfasalazine, hydroxychloroquine and colchicine”. Also, in data set [11] (8 patients, pramipexole 2-6 mg qhs), the “Decrease or d/c of prednisone” value is 80%. This molecule also registered a Prednisone dose reached in data set [11] (person with life threatening leukopenia, steroids 60 mg qd before, Pramipexole increased to 3.5 mg q hs over 3 months) of 5 mg qd. In data set [11] (same patient after pramipexole 3-4.5 mg qhs), the Symptoms noted result is “much less fatigue, anemia, joint pain, and had stable kidney function”. The Prednisone dose reached in data set [11] (same patient, pramipexole 3-4.5 mg qhs added, first time in 7 years) was 5 mg qd. Also, the Complete blood count entry in data set [11] (same person, after Pramipexole) was “maintaining normal complete blood count”.
For the molecule `CCCN(CCC)CCc1cccc2c1CC(=O)N2.Cl` [Ropinirole, 4-[2-(dipropylamino)-ethyl]-1,3-dihydro-2H-indol-2-one mono hydrochloride], in [14], the Prednisone dose result is reported as “able to lower their prednisone doses”. Also, the Tolerability entry in data set [6] was “intolerant”.
Turning to `COc1cc2c(c(OC)c1OC)-c1ccc(OC)c(=O)cc1[C@@H](NC(C)=O)CC2` [colchicine], in [7], the Flares entry is “flare ups were previously uncontrolled”. In addition, the Prednisone dose reached in data set [10] came to 15 mg qd.
`CCN(CCO)CCCC(C)Nc1ccnc2cc(Cl)ccc12` (stereo not shown) [hydroxychloroquine]: the Prednisone dose reached in [10] is 15 mg qd.
Consider `C[C@]12C=CC(=O)C=C1CC[C@@H]1[C@@H]2C(=O)C[C@@]2(C)[C@H]1CC[C@]2(O)C(=O)CO` [prednisone], for which the “Control of severe synovitis” value in [10] (prednisone 10-40 mg qd for two months) was “uncontrolled”.
